Test results published in patent publication US9629826B2, “CAI-based systems and methods for the localized treatment of uveitis” (Gen Pharma Holdings, LLC., priority 2014, dated 2017).
“Also recorded” adds a separate entry of the source.

Tests used:
[1] = cited from earlier work
[2] = in vivo; cited from earlier work
[3] = systemic CAI; cited from earlier work
neovascularization = test: Contemplated clinical cases: intravitreal or periocular CAI against neovascularization; assay type: in vivo; conditions: contemplated cases: 50 mcg intravitreal (Example 9); 200 mcg intravitreal then periocular sustained-release (Example 10)
From the text: The following contemplated clinical cases of angiogenesis are presented as examples of methods of treatment and not as limitations. Other illustrations of treating systemic or localized angiogenesis are not presented, since the principles involved are similar, and will be apparent to the skilled reader based upon review of an individual's clinical manifestation and the preferred embodiments of the inventive compositions.
Person with Proliferative Diabetic Retinopathy and threshold high-risk characteristics presents with Vitreous Hemorrhage. The patient also has atrial fibrillation and ischemic cardiomyopathy that requires oral Coumadin. The patient is intolerant to topical Panretinal Photocoagulation. The INR measured at just less than 2. […] The patients Vitreous Hemorrhage slowly resolves and the patient is able to taper their Coumadin so that Panretinal Photocoagulation can be placed with retrobulbar anesthesia. Alternately, the patient remains on Coumadin and then is treated with a patch periocular insert of CAI to diminish the neovascularization.
Person with a two-week history of central scotoma. They developed a large disciform scar in the contralateral eye after several sessions of photodynamic therapy. On exam and fluorescein angiography is predominately classic subfoveal membrane is noted. […]

[4] = cited from earlier work; remark: listed apart in the source

NC(=O)c1nnn(Cc2cc(Cl)c(C(=O)c3ccc(Cl)cc3)c(Cl)c2)c1N [CAI]
serious side effect associated with clinical use ([1]; systemic administration, two cases described): loss of vision
toxic effects observed in clinical studies ([1]; systemic oral dosage regimens): cerebellar ataxia, peripheral neuropathy and exacerbation of depression
physiological tissue concentrations [2]: 1-10 μM
plasma concentrations associated with unacceptable toxicity [3]: above 100 micromolar
neovascular regression (neovascularization): some neovascular regression; also recorded: neovascular regression occurs

C[C@@H]1C[C@H]2[C@@H]3CCC4=CC(=O)C=C[C@]4(C)[C@@]3(F)[C@@H](O)C[C@]2(C)[C@@]1(O)C(=O)CO [Dexamethasone]
concentration detected in the vitreous cavity ([4]; single 5 mg peribulbar injection in humans): 13 ng/mL
delivery to the subretinal space, higher following subconjunctival injection ([4]; subconjunctival injection): 10 fold
